In patent US5298523A, “Method for treating transplant patients using mycalamide compounds” (priority 1992, dated 1994):
Entries after “also recorded” stand apart in the source; their conditions may differ.

Experiments:
[1] = tested on: graft vs. host reaction, CB6F1 mice grafted with BALB/c splenocytes; test: Graft vs. host reaction (Simonsen splenomegaly assay); assay type: in vivo, mouse; conditions: Experiment #2, 0.2 mg/kg i.p., Days 1-7
Protocol: Graft vs. host reaction. In vivo studies with mycalamide A utilized the […]→F1, GVHR model (Simonsen splenomegaly assay). CB6F1 male mice, 4 weeks of age, were injected intraperitoneally with 5×10^7 splenocytes from BALB/c male mice, 8 weeks of age, on day 0 (BALB/c→CB6F1). A syngeneic control group (CB6F1 →CB6F1) was similarly prepared and served as the negative control. For experiment 1, the grafted mice were divided into 5 treatment groups of 5 mice each. Groups were injected intraperitoneally with mycalamide A (dissolved initially in ethanol followed by dilution in sterile phosphate-buffered saline as a vehicle) or vehicle alone on days 1-7. For experiment 2, the grafted mice were divided into 7 treatment groups of 5 mice each and similarly injected intraperitoneally with mycalamide A, an immunosuppressive standard, didemnin B, or vehicle alone on days 1-7. On day 7 all groups were sacrificed, spleens excised, and the mean spleen weight and stimulation index calculated for each group. The stimulation index was calculated as follows: [formula] A spleen index of 1.3 or greater is considered a positive response.
^a CB6F1 mice (5 per group) were grafted with 5 × 10^7
BALB/c splenocytes, intraperitoneally on Day 0. Groups were injected
intraperitoneally with drug or vehicle on Days 1-7. Positive indicates
grafted mice receiving vehicle alone.
^b Number of surviving mice at the end of the experiment.
^c Stimulation index (SI) = (spleen weight of test group/body weight
of test group)/(spleen weight of syngeneic group/body weight of syngeneic
^d Suppression = [(SI of positive control) (SI of test group)]/[(SI
of positive control) (SI of syngeneic group)].
^e Didemnin B immunosuppressive standard.

[2] = tested on: murine CD4^+ T cells; test: Activation of CD4+ T cells by anti-CD3 mAb/mB7; assay type: cell-based, murine (BALB/c); conditions: anti-CD3/mB7
Protocol: (§1) (A) Costimulation of T cells with anti-CD3 mAb and mB7. […] (B) Costimulation of T cells with mB7 and PMA. […] All cultures were incubated for 48 hours and pulsed with 1 μCi [ ^3 H] thymidine/well for the last 6 hours of the incubation period to assay for T cell proliferation.
(§2) (A) Costimulation of T cells with anti-CD3 mAb and mB7. 2×10^5 purified BALB/c CD4^+ T lymphocytes were stimulated with the indicated concentrations of anti-CD3 mAb in the presence of medium (.largecircle.), 2×10^4 paraformaldehyde-fixed CHO-mB7 cells (.quadrature.), or 2×10^4 paraformaldehyde-fixed CHO-mB7 cells in the presence of 0.1 nM FK506 (.gradient.), 1 nM FK506 (Δ), or 10 nM FK506 ( ). (B) Costimulation of T cells with mB7 and PMA. 2×10^5 purified BALB/c CD4^+ T lymphocytes were stimulated with the indicated concentrations of PMA and either medium (.largecircle.), 2×10^4 paraformaldehyde-fixed CHO-mB7 cells (.quadrature.), or paraformaldehyde-fixed CHO-mB7 cells in the presence of 0.1 nM FK506 (.gradient.), 1 nM FK506 (Δ), or 10 nM FK506 ( ). All cultures were incubated for 48 hours and pulsed with 1 μCi [^3 H] thymidine/well for the last 6 hours of the incubation period to assay for T cell proliferation.
as §2, with “pM mycalamide A” for “nM FK506”
mB7-mediated activation of murine CD4^+ T cells. Mouse T cells were purified as follows: splenocytes were depleted of red blood cells by treatment with Tris-NH4 Cl. T cells were enriched by nylon wool fractionation. CD4^+ T cells from BALB/c mice were purified by two-fold treatment with a mixture of anti-MHC Class II and anti-CD8 monoclonal antibodies and rabbit complement. Chinese hamster ovary cells (CHO) and CHO cells transfected with the murine B7 molecule (CHOmB7) were fixed with 1% paraformaldehyde prior to addition to the cultures. Microcultures were set up in duplicate 96-well plates. […] All cultures were incubated for 48 hours and pulsed with 1 μCi ^3 H-thymidine/well for the last 6 hours of the incubation period to assay for T cell proliferation.

[3] = tested on: murine CD4^+ T cells; test: Activation of CD4+ T cells by PMA/mB7; assay type: cell-based, murine (BALB/c); conditions: in words
Protocol: as §1, §2
(A) Costimulation of T cells with anti-CD3 mAb and mB7. […]

[4] = T cell viability by trypan blue exclusion; assay type: cell-based, murine; conditions: t cells; 1 nM, Experiment 1, 20 hours; read-out: percentage of trypan blue-positive cells
Protocol: (§3) Determination of mycalamide A toxicity. The toxicity of mycalamide A on murine splenocytes and human PBL was determined using a colorimetric assay, based on the ability of viable cells to convert the colorless tetrazolium salt, 3-(4,5-dimethylthiazol-2yl)-2,5-diphenyl tetrazolium bromide (MTT) to a colored formazan product and trypan blue exclusion. For the colorimetric assay, a volume of 0.075 ml of an MTT solution (550 μg/ml of MTT in TCM) was added to test and control wells containing one of the populations of splenocytes or test wells and incubated for 5-6 hours following the initial incubation period. Microtiter plates were centrifuged at 100× g, supernatants carefully removed, and a volume of 0.20 ml of isopropyl alcohol was added to each well to dissolve the formazan crystals. The absorbance at 570 nm was determined for each well using an ELISA plate reader. […] As an additional parameter of toxicity, wells containing cultured lymphocytes with various dilutions of mycalamide A were examined with trypan blue, and the percentage of dye-excluding (viable) cells was determined.
(§4) Compounds were added as indicated. Cells were harveste
(§5) Each data point represents the mean value o

[5] = tested on: T cells; test: T cell viability by trypan blue exclusion; assay type: cell-based, murine; conditions: 1 nM
Protocol: as §3, §4, §5

For `CC[C@H](C)[C@H]1NC(=O)[C@@H](NC(=O)[C@@H](CC(C)C)N(C)C(=O)[C@@H]2CCCN2C(=O)C(C)O)[C@@H](C)OC(=O)[C@H](Cc2ccc(OC)cc2)N(C)C(=O)[C@@H]2CCCN2C(=O)[C@H](CC(C)C)NC(=O)[C@@H](C)C(=O)[C@H](C(C)C)OC(=O)C[C@@H]1O` (stereo partly shown) [Didemnin B, didemnin B, reference compound], the “% Suppression” value [1] was 113%, the “Number of surviving mice at the end of the experiment” value [1] was 5/5 and the Stim. index [1] was 0.93.
For `C=CC[C@@H]1/C=C(\C)C[C@H](C)C[C@H](OC)[C@H]2O[C@@](O)(C(=O)C(=O)N3CCCC[C@H]3C(=O)O[C@H](/C(C)=C/[C@@H]3CC[C@@H](O)[C@H](OC)C3)[C@H](C)[C@@H](O)CC1=O)[C@H](C)C[C@@H]2OC` [FK506, reference compound], the “potency compared to CsA” value ([2]; FK506 vs CsA) was “approximately 100 times”, the “effect on anti-CD3/mB7 activation of CD4+ cells” value ([2]; in words) was “parallel those of CsA; also recorded: blocks the anti-CD3/mB7 activation of CD4^+ cells” and the “effect on PMA/CHO-mB7 stimulation of CD4+ cells” value [3] was “not affected”. The cytotoxicity at 20 h, 0.001 µM [4] was < 2%, the “number of cells excluding trypan blue” value ([5]; Experiment 1, 20 hours) was 1.40 × 10^6 cells and the “number of cells excluding trypan blue” value ([5]; Experiment 2, 20 hours) was 1.64 × 10^6 cells. For the same molecule, the “percentage of trypan blue-positive cells” value ([5]; Experiment 2, 20 hours) was < 2%.
